Values after ≈ are worked out from the molar mass of the structure shown. Where two headings read alike, the source gives them in different places. Where a SMILES comes first, the peptide text is derived from it. [ ]: non-standard residue; d: D form. Hyp = O=C(O)[C@@H]1C[C@@H](O)CN1; dHyp = O=C(O)[C@H]1C[C@H](O)CN1; Aic = NC1(C(=O)O)Cc2ccccc2C1; dNle = CCCC[C@@H](N)C(=O)O
Legend:
[1] = test system: methicillin-resistant S. pseudintermedius (MRSP); assay: microbe, parasite or virus in culture; type: cell-based, Staphylococcus pseudintermedius; settings: Staphylococcus pseudintermedius, 24 h
Protocol: (§1) MIC of all compounds was determined in Sabouraud Dextrose broth with 1% tween 80 (SB) medium, for M. pachydermatis, and Mueller–Hinton broth (MH), for S. pseudintermedius, by the broth microdilution assay (BMD) in 96-well microtiter plates, as previously reported. Specifically, SB containing 1% Tween 80 was used instead of RPMI 1640 medium. All compounds were dissolved in ethanol and ketoconazole in dimethyl sulfoxide (DMSO). The solutions were serially diluted in SB and MH two-fold from 0.19 to 50 μM. M. pachydermatis suspension was prepared from 3-day-old colonies grown on Sabouraud agar at 30 °C. The final concentration of the yeast inoculum suspensions was equivalent to 1–3 × 10^3 CFU/mL. Bacterial suspensions were diluted to yield an optical density (OD) around 0.5 at 595 nm and further diluted to a final concentration of 1 × 10^6 CFU/mL. The compounds were added to the microbial suspension in each well yielding a final cell concentration of 5 × 10^5 CFU/mL. Positive controls included oxacillin 5 μM (2 μg/mL) and vancomycin 1.4 μM (2 μg/mL) for S. pseudintermedius or ketoconazole 0.2 μM (0.125 μg/mL) for M. pachydermatis. Negative control wells were set to contain bacteria in MH or yeasts in SB plus the amount of ethanol used to dilute each compound. Medium turbidity was measured by a microtiter plate reader (Tecan, Milan, Italy) at 595 nm after 24 h for S. pseudintermedius and 48 h for M. pachydermatis. Absorbance was proportional to microbial growth. The MIC was defined as the lowest concentration of drug that caused a prominent decrease (≥90% inhibition) in visible growth relative to that of the growth control.

[2] = test system: methicillin-susceptible S. pseudintermedius (MSSP); assay: microbe, parasite or virus in culture; type: cell-based, Staphylococcus pseudintermedius; settings: Staphylococcus pseudintermedius, 24 h
Protocol: as §1

MRSP = assay: Checkerboard synergy of peptide 8 and oxacillin; type: cell-based, Staphylococcus pseudintermedius
Protocol: The interaction between peptide 8 and oxacillin against MRSP was evaluated by the checkerboard method. Briefly, twofold serial dilutions of oxacillin distributed in horizontal rows of 96-well microtiter plate were cross-diluted vertically by twofold serial dilutions of peptide 8 to at least double the MIC. The peptide 8 tested concentration ranging from 0.19 to 12.5 μM and oxacillin from 1.25 to 25 μM (0.5 to 10 μg/mL). Microtiter plates were inoculated with bacteria at an approximate concentration of 10^5 CFU/mL and incubated at 37 °C for 24 h. […] To evaluate the effect of the combination treatment, the fractional inhibitory concentration (FIC) index for each combination was calculated as follows: FIC index = FIC of peptide 8 + FIC of oxacillin, where FIC of peptide 8 (or oxacillin) was defined as the ratio of MIC of peptide 8 (or oxacillin) in combination and MIC of peptide 8 (or oxacillin) alone. The FIC index values were interpreted as follows: ≤0.5, synergistic; >0.5 to ≤1.0, additive; >1.0 to ≤2.0, indifferent; and >2.0, antagonistic effects.

M. pachydermatis = settings: for MIC Values: broth microdilution, Sabouraud dextrose broth + 1% Tween 80, 48 h, ≥90% inhibition of growth, OD 595 nm; for MMC/MIC Ratio: M. pachydermatis; for MMC Values (minimum mycocidal concentration): ≥3 log10 reduction in colony count from starting inoculum, agar 72 h at 30 °C
Protocol: as §1

SMILES	MIC Values (M. pachydermatis)	MMC/MIC Ratio (M. pachydermatis)	MMC Values (minimum mycocidal concentration) (M. pachydermatis)	also measured
Cc1onc(-c2ccccc2)c1C(=O)N[C@@H]1C(=O)N2[C@@H]1SC(C)(C)[C@@H]2C(=O)O [Oxacillin, oxacillin, reference compound]	–	–	–	MIC ([1]; MRSP, Mueller-Hinton broth, ≥90% inhibition, three independent experiments in triplicate, read-out: MIC): 25 µM (≈ 10 µg/mL); MIC ([2]; MSSP, Mueller-Hinton broth, ≥90% inhibition, three independent experiments in triplicate, read-out: MIC): < 5 µM; Oxacillin MIC value reduction in combination with peptide 8 (MRSP; MRSP, oxacillin alone versus oxacillin in combination): about eight; Concentration of oxacillin in the most synergistic combination (MRSP; with 1.56 μM peptide 8, MRSP, 1/8 MIC): 3.1 µM
CC[C@H](C)[C@H](NC(=O)[C@H](CCCNC(=N)N)NC(=O)CNC(=O)[C@@H](CC(C)C)NC(=O)[C@H](Cc1ccccc1)NC(=O)[C@H](CCCCN)NC(=O)[C@H](CO)NC(=O)[C@H](Cc1ccccc1)NC(=O)[C@H](Cc1c[nH]c2ccccc12)NC(=O)[C@@H]1CCCN1C(=O)[C@@H](NC(=O)[C@@H](N)Cc1ccccc1)C(C)C)C(=O)N[C@@H](CC(C)C)C(N)=O [Peptide 1] (H-FVPWFSKF[dL]GRIL-NH2)	25 µM	–	–	–
CC[C@H](C)[C@H](NC(=O)[C@H](CCCNC(=N)N)NC(=O)[C@@H]1CCCN1C(=O)[C@@H](CC(C)C)NC(=O)[C@H](Cc1ccccc1)NC(=O)[C@H](CCCCN)NC(=O)[C@H](CO)NC(=O)[C@H](Cc1ccccc1)NC(=O)[C@H](Cc1c[nH]c2ccccc12)NC(=O)[C@@H]1CCCN1C(=O)[C@@H](NC(=O)[C@@H](N)Cc1ccccc1)C(C)C)C(=O)N[C@@H](CC(C)C)C(N)=O [Peptide 2] (H-FVPWFSKF[dL]PRIL-NH2)	25 µM	4	100 µM	–
CC[C@H](C)[C@H](NC(=O)[C@H](CCCNC(=N)N)NC(=O)[C@H]1CCCN1C(=O)[C@@H](CC(C)C)NC(=O)[C@H](Cc1ccccc1)NC(=O)[C@H](CCCCN)NC(=O)[C@H](CO)NC(=O)[C@H](Cc1ccccc1)NC(=O)[C@H](Cc1c[nH]c2ccccc12)NC(=O)[C@@H]1CCCN1C(=O)[C@@H](NC(=O)[C@@H](N)Cc1ccccc1)C(C)C)C(=O)N[C@@H](CC(C)C)C(N)=O [Peptide 3] (H-FVPWFSKF[dL][dP]RIL-NH2)	25 µM	4	100 µM	–
CC[C@H](C)[C@H](NC(=O)[C@H](CCCNC(=N)N)NC(=O)[C@@H]1C[C@@H](O)CN1C(=O)[C@@H](CC(C)C)NC(=O)[C@H](Cc1ccccc1)NC(=O)[C@H](CCCCN)NC(=O)[C@H](CO)NC(=O)[C@H](Cc1ccccc1)NC(=O)[C@H](Cc1c[nH]c2ccccc12)NC(=O)[C@@H]1CCCN1C(=O)[C@@H](NC(=O)[C@@H](N)Cc1ccccc1)C(C)C)C(=O)N[C@@H](CC(C)C)C(N)=O [Peptide 4] (H-FVPWFSKF[dL][Hyp]RIL-NH2)	25 µM	4	100 µM	–
CC[C@H](C)[C@H](NC(=O)[C@H](CCCNC(=N)N)NC(=O)[C@H]1C[C@H](O)CN1C(=O)[C@@H](CC(C)C)NC(=O)[C@H](Cc1ccccc1)NC(=O)[C@H](CCCCN)NC(=O)[C@H](CO)NC(=O)[C@H](Cc1ccccc1)NC(=O)[C@H](Cc1c[nH]c2ccccc12)NC(=O)[C@@H]1CCCN1C(=O)[C@@H](NC(=O)[C@@H](N)Cc1ccccc1)C(C)C)C(=O)N[C@@H](CC(C)C)C(N)=O [Peptide 5] (H-FVPWFSKF[dL][dHyp]RIL-NH2)	–	4	100 µM	–
CCCC[C@@H](NC(=O)[C@@H](CC(C)C)NC(=O)[C@H](Cc1ccccc1)NC(=O)[C@H](CCCCN)NC(=O)[C@H](CO)NC(=O)[C@H](Cc1ccccc1)NC(=O)[C@H](Cc1c[nH]c2ccccc12)NC(=O)[C@@H]1CCCN1C(=O)[C@@H](NC(=O)[C@@H](N)Cc1ccccc1)C(C)C)C(=O)N[C@@H](CCCNC(=N)N)C(=O)N[C@H](C(=O)N[C@@H](CC(C)C)C(N)=O)[C@@H](C)CC [Peptide 6] (H-FVPWFSKF[dL][dNle]RIL-NH2; N-terminus assumed)	25 µM	4	100 µM	–
CC[C@H](C)[C@H](NC(=O)[C@H](CCCNC(=N)N)NC(=O)[C@H](CCCCN)NC(=O)[C@@H](CC(C)C)NC(=O)[C@H](Cc1ccccc1)NC(=O)[C@H](CCCCN)NC(=O)[C@H](CO)NC(=O)[C@H](Cc1ccccc1)NC(=O)[C@H](Cc1c[nH]c2ccccc12)NC(=O)[C@@H]1CCCN1C(=O)[C@@H](NC(=O)[C@@H](N)Cc1ccccc1)C(C)C)C(=O)N[C@@H](CC(C)C)C(N)=O [Peptide 7] (H-FVPWFSKF[dL]KRIL-NH2; N-terminus assumed)	12.5 µM	2	25 µM	–
CC[C@H](C)[C@H](NC(=O)[C@H](CCCNC(=N)N)NC(=O)[C@H](Cc1c[nH]c2ccccc12)NC(=O)[C@@H](CC(C)C)NC(=O)[C@H](Cc1ccccc1)NC(=O)[C@H](CCCCN)NC(=O)[C@H](CO)NC(=O)[C@H](Cc1ccccc1)NC(=O)[C@H](Cc1c[nH]c2ccccc12)NC(=O)[C@@H]1CCCN1C(=O)[C@@H](NC(=O)[C@@H](N)Cc1ccccc1)C(C)C)C(=O)N[C@@H](CC(C)C)C(N)=O [Peptide 9] (H-FVPWFSKF[dL]WRIL-NH2)	25 µM	4	100 µM	–
CC[C@H](C)[C@H](NC(=O)[C@H](CCCNC(=N)N)NC(=O)[C@@H](Cc1c[nH]c2ccccc12)NC(=O)[C@@H](CC(C)C)NC(=O)[C@H](Cc1ccccc1)NC(=O)[C@H](CCCCN)NC(=O)[C@H](CO)NC(=O)[C@H](Cc1ccccc1)NC(=O)[C@H](Cc1c[nH]c2ccccc12)NC(=O)[C@@H]1CCCN1C(=O)[C@@H](NC(=O)[C@@H](N)Cc1ccccc1)C(C)C)C(=O)N[C@@H](CC(C)C)C(N)=O [Peptide 10] (H-FVPWFSKF[dL][dW]RIL-NH2)	12.5 µM	2	25 µM	–
CC[C@H](C)[C@H](NC(=O)[C@H](CCCNC(=N)N)NC(=O)C1(NC(=O)[C@@H](CC(C)C)NC(=O)[C@H](Cc2ccccc2)NC(=O)[C@H](CCCCN)NC(=O)[C@H](CO)NC(=O)[C@H](Cc2ccccc2)NC(=O)[C@H](Cc2c[nH]c3ccccc23)NC(=O)[C@@H]2CCCN2C(=O)[C@@H](NC(=O)[C@@H](N)Cc2ccccc2)C(C)C)Cc2ccccc2C1)C(=O)N[C@@H](CC(C)C)C(N)=O [Peptide 11] (H-FVPWFSKF[dL][Aic]RIL-NH2)	25 µM	4	100 µM	–
CN[C@H](CC(C)C)C(=O)N[C@H]1C(=O)N[C@@H](CC(N)=O)C(=O)N[C@H]2C(=O)N[C@H]3C(=O)N[C@H](C(=O)N[C@H](C(=O)O)c4cc(O)cc(O)c4-c4cc3ccc4O)[C@H](O)c3ccc(c(Cl)c3)Oc3cc2cc(c3O[C@@H]2O[C@H](CO)[C@@H](O)[C@H](O)[C@H]2O[C@H]2C[C@](C)(N)[C@H](O)[C@H](C)O2)Oc2ccc(cc2Cl)[C@H]1O [Vancomycin, vancomycin, reference compound]	–	–	–	MIC [1]: < 1.4 µM; MIC [2]: < 1.4 µM
